Measured values reported in publication PMC4123750 (Cell, 2014).

T1: NtDRM MTase (Nicotiana tabacum, UniProt Q76KU6)
T1 sequence (Q76KU6 255-608): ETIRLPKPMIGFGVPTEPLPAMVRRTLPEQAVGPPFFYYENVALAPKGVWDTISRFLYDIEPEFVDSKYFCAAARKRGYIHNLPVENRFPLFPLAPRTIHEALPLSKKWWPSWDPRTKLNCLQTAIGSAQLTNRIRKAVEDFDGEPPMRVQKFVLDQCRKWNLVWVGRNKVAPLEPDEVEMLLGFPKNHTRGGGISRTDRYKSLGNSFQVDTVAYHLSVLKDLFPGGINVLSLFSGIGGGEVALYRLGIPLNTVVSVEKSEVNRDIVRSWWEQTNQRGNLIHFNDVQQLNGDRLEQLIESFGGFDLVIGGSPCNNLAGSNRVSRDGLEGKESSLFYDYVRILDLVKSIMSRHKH

B1: Nicotiana tabacum DRM methyltransferase domain (NtDRM MTase, residues 255-608) (domain or fragment, UniProt Q76KU6 255-608, looked up)
chain: T1 sequence (Q76KU6 255-608)

Columns and labels:
NtDRM MTase = molecular target: T1, NtDRM MTase; assay: X-ray crystal structure, […] A; format: binding; conditions: cofactor site; co-crystallised at protein:sinefungin molar ratio 1:3
crystal structure = molecular target: the molecule itself; assay: crystal structure

Row | Molecule | X-ray crystal structure, 2.8 A (NtDRM MTase) | stoichiometry N (crystal structure)
1 | Nc1ncnc2c1ncn2[C@@H]1O[C@H](C[C@@H](N)CC[C@H](N)C(=O)O)[C@@H](O)[C@H]1O [sinefungin] | NtDRM MTase dimer with each molecule bound to a cofactor analog sinefungin in the active site | –
2 | B1 | – | 2
